From patent US20230123334A1, “AMINO LIPID COMPOUND, PREPARATION METHOD THEREFOR, AND APPLICATION THEREOF” (SHENZHEN SHENXIN BIOTECHNOLOGY CO., LTD., priority 2020, published 2023)

Each compound was assayed on HEK293 cells (assay: Preliminary screening as DNA vectors, GFP transfection of HEK293 cells). Conditions: amino lipid/DOPE liposome with 75 ng plasmid DNA (psin-EGFP-IRES-Puro); number of GFP-expressing cells divided by total nuclei (Hoechst).
Type: cell-based
Method in brief: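 Lipid + DOPE liposomes (NaOAc, pH 5.6) complexed w/ 75 ng psin-EGFP-IRES-Puro, 30 min RT; added to 3-5×10^4 HEK293/well, 37° C. Hoechst 0.2 μg/mL at 20-24 h, imaged after further 20-24 h. Efficiency = GFP+ cells / total nuclei.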

SMILES | Absolute DNA transfection efficiency in HEK293 cells [%]
CCCCCCCCCCSc1nc(NCCN2CCCC2)nc(SCCCCCCCC)n1 [S8S10 D3] | 8.9
CCCCCCCCCCCCCCCSc1nc(NCCCCCCCCCCC)nc(NCCCN2CCOCC2)n1 [S15N11 D8] | 6.1
CCCCCCCCCCCCN(CCCCCCCCCCCC)c1nc(NCCN2CCN(C)CC2)nc(SCCCCCCC)n1 [S7^2N12 D5] | 0.2
CCCCCCCCCCCCCCCCSc1nc(NCCCCCCCCCCCCC)nc(NCCN2CCN(C)CC2)n1 [S16N13 D5] | 0.8
CCCCCCCCCCCCCCCSc1nc(NCCCCCCCCCCC)nc(NCCN(C)C)n1 [S15N11 D1] | 12.9
CCCCCCCCCCCCCCCCCCNc1nc(NCCCN(C)C)nc(SCCCCCCCCC)n1 [S9N18 D6] | 47.5
CCCCCCCCCCCCNc1nc(NCCN2CCN(C)CC2)nc(SCCCCCCCC)n1 [S8N12 D5] | 41.7
CCCCCCCCCCCCCCSc1nc(NCCCCCCCC)nc(NCCCN2CCOCC2)n1 [S14N8 D8] | 9.8
CCCCCCCCCSc1nc(NCCCN(C)C)nc(SCCCCCCC)n1 [S7S9 D6] | 3.4
CCCCCCCCCCCCN(CCCCCCCCCCCC)c1nc(NCCCN2CCOCC2)nc(SCCCCCCCCCCC)n1 [S11^2N12 D8] | 0.0
CCCCCCCCCCCCCCCSc1nc(NCCCCCCCC)nc(NCCCN2CCN(C)CC2)n1 [S15N8 D9] | 11.6
CCCCCCCCCCCSc1nc(NCCN2CCN(C)CC2)nc(SCCCCCC)n1 [S6S11 D5] | 32.7
CCCCCCCCCCCCCCCCCCSc1nc(NCCCCCCCC)nc(NCCN(C)C)n1 [S18N8 D1] | 4.1
CCCCCCCCCCCCCCCCCCNc1nc(NCCN2CCCC2)nc(SCCCCCC)n1 [S6N18 D3] | 21.9
CCCCCCCCCCCCCCCCNc1nc(NCCN2CCOCC2)nc(SCCCCCCCCCC)n1 [S10N16 D2] | 1.2
CCCCCCCCNc1nc(NCC2CCN(C)CC2)nc(SCCCCCCC)n1 [S7N8 D10] | 9.5
CCCCCCCCCCCCSc1nc(NCCCCCCC)nc(NCCN2CCCCC2)n1 [S12N7 D4] | 0.2
CCCCCCCCCCCCNc1nc(NCCN2CCN(C)CC2)nc(SCCCCCCCCC)n1 [S9N12 D5] | 48.2
CCCCCCCCCCCCCCCCNc1nc(NCCN2CCOCC2)nc(SCCCCCCCCCCCCCCCC)n1 [S16N16 D2] | 0.0
CCCCCCCCCCCSc1nc(NCCCCCCCCC)nc(NCCN2CCOCC2)n1 [S11N9 D2] | 13.6
CCCCCCCCCCCCCCCCNc1nc(NCCCN(C)C)nc(SCCCCCCCCCC)n1 [S10N16 D6] | 13.6
CCCCCCCCCCSc1nc(NCCN2CCCCC2)nc(SCCCCCCCC)n1 [S8S10 D4] | 8.3
CCCCCCCCCCCCCCCSc1nc(NCCCCCCCC)nc(NCCN(C)C)n1 [S15N8 D1] | 8.9
CCCCCCCCCCSc1nc(NCCCCCCC)nc(NCCCN(C)C)n1 [S10N7 D6] | 6.2
CCCCCCCCCCCCCCSc1nc(NCCCCCCCC)nc(NCCN2CCOCC2)n1 [S14N8 D2] | 12.9
CCCCCCCCCCCCCCCCCCNc1nc(NCCN(CC)CC)nc(SCCCCCCCCCC)n1 [S10N18 D7] | 4.0
CCCCCCCCCCCCCCCCCCNc1nc(NCCCN2CCOCC2)nc(SCCCCCCCCC)n1 [S9N18 D8] | 26.1

SMILES | Absolute DNA transfection efficiency in HEK293 cells [%]
CCCCCCCSc1nc(NCCCCCC)nc(NCCCN2CCOCC2)n1 [S7N6 D8] | 4.7
CCCCCCCCCCCSc1nc(NCCCCCC)nc(NCC2CCN(C)CC2)n1 [S11N6 D10] | 8.8
CCCCCCCCCCCNc1nc(NCCCN2CCOCC2)nc(SCCCCCCCCCCC)n1 [S11N11 D8] | 2.5
CCCCCCCCCCCCN(CCCCCCCCCCCC)c1nc(NCCCN(C)C)nc(SCCCCCCCCCC)n1 [S10^2N12 D6] | 4.3
CCCCCCNc1nc(NCCN(C)C)nc(SCCCCCC)n1 [S6N6 D1] | 0.1
CCCCCCCCCCCSc1nc(NCCCCCCCCC)nc(NCCN(CC)CC)n1 [S11N9 D7] | 2.0
CCCCCCCCCCCCCCCCNc1nc(NCCN2CCN(C)CC2)nc(SCCCCCCCCCCCC)n1 [S12N16 D5] | 0.7
CCCCCCCCCCCCSc1nc(NCCCCCCCCCCC)nc(NCCN(C)C)n1 [S12N11 D1] | 3.2
CCCCCCCCCCCCN(CCCCCCCCCCCC)c1nc(NCCN2CCN(C)CC2)nc(SCCCCCCCCC)n1 [S9^2N12 D5] | 0.3
CCCCCCCCCCSc1nc(NCCCCCCCCC)nc(NCC2CCN(C)CC2)n1 [S10N9 D10] | 4.5
CCCCCCCSc1nc(NCCCCCC)nc(NCCN2CCCC2)n1 [S7N6 D3] | 34.7
CCCCCCCCCCCCCCCCSc1nc(NCCCN(C)C)nc(SCCCCCCC)n1 [S7S16 D6] | 9.0
CCCCCCCCCCCSc1nc(NCCCCCCCCC)nc(NCCN2CCCC2)n1 [S11N9 D3] | 23.1
CCCCCCCCCCCCNc1nc(NCCCN(C)C)nc(SCCCCCCCCCCC)n1 [S11N12 D6] | 18.8
CCCCCCCCCCCCCCSc1nc(NCCCCCCCCCCCCC)nc(NCCN2CCCC2)n1 [S14N13 D3] | 9.1
CCCCCCCCCCCCSc1nc(NCCCN2CCOCC2)nc(SCCCCCCC)n1 [S7S12 D8] | 10.9
CCCCCCCCCCCCCCCNc1nc(NCCN(C)C)nc(SCCCCCCCCCC)n1 [S10N15 D1] | 4.8
CCCCCCCCCCSc1nc(NCCN(CC)CC)nc(SCCCCCCC)n1 [S7S10 D7] | 20.2
CCCCCCCCCCCSc1nc(NCCCN(C)C)nc(SCCCCCCCC)n1 [S8S11 D6] | 7.9
CCCCCCCCCCCCSc1nc(NCCCCCC)nc(NCCN2CCCC2)n1 [S12N6 D3] | 0.0
CCCCCCCCCSc1nc(NCCCCCCCC)nc(NCCCN(C)C)n1 [S9N8 D6] | 17.9
CCCCCCCCCCSc1nc(NCCCCCC)nc(NCCCN(C)C)n1 [S10N6 D6] | 3.5
CCCCCCCCCCCCCCSc1nc(NCCCN2CCN(C)CC2)nc(SCCCCCCC)n1 [S7S14 D9] | 3.8
CCCCCCCCCCCCCCCCCCSc1nc(NCCCCCC)nc(NCCCN(C)C)n1 [S18N6 D6] | 14.5
CCCCCCCCCCCCN(CCCCCCCCCCCC)c1nc(NCCN2CCCC2)nc(SCCCCCCCC)n1 [S8^2N12 D3] | 0.1
CCCCCCCCCCCCCNc1nc(NCCCN2CCN(C)CC2)nc(SCCCCCC)n1 [S6N13 D9] | 38.3
CCCCCCCCCCCCCCSc1nc(NCCCCCCCCCCCCC)nc(NCCN2CCCCC2)n1 [S14N13 D4] | 3.9
